Measurements reported in ChEMBL document CHEMBL5036301, “Heteroaryl ether analogues of an antileishmanial 7-substituted 2-nitroimidazooxazine lead afford attenuated hERG risk: In vitro and in vivo appraisal” (Eur J Med Chem, 2021).
≈ marks a conversion by molar mass, not a printed value.

Tests used:
Leishmania donovani [1] = assay: Antileishmanial activity against Leishmania donovani amastigotes infected in mouse J774A.1 cells incubated for 72 hrs by luciferase assay; type: functional, organism-based; settings: J774.A1, 72 h
Leishmania infantum = assay: Antileishmanial activity against Leishmania infantum MHOM/MA(BE)/67 amastigotes infected in macrophages assessed as reduction in parasite burden by giemsa staining based microscopic analysis; type: functional, organism-based
Trypanosoma cruzi = assay: Antitrypanosomal activity against Trypanosoma cruzi Tulahuen CL2 infected in human MRC-5 cells assessed as parasite growth; type: functional, organism-based; settings: Tulahuen CL2, MRC5
MRC5 = assay: Cytotoxicity against human MRC5 cells assessed as cell viability after 72 hrs by fluorimetric analysis; type: ADME, cell-based; settings: MRC5, 72 h
[2] = test system: Mycobacterium tuberculosis; assay: Antitubercular activity against Mycobacterium tuberculosis H37Rv assessed as reduction in microbial growth under aerobic condition by luminescence analysis; type: functional
[3] = test system: Mycobacterium tuberculosis; assay: Antitubercular activity against Mycobacterium tuberculosis H37Rv assessed as reduction in microbial growth under anaerobic condition by luminescence analysis; type: functional
[4] = Kinetic solubility of compound in water at pH7 by HPLC analysis; settings: pH 7
Leishmania donovani [5] = assay: Antileishmanial activity against Leishmania donovani amastigotes infected in BALB/C mouse assessed as reduction in parasite burden in liver tissue at 50 mg/kg, po administered once per day for 5 days relative to control; type: functional; settings: 120 h, time 5 day
[6] = Initial plasma concentration in mouse at 1 mg/kg, iv measured upto 24 hrs LC-MS/MS analysis
[7] = Clearance in mouse at 1 mg/kg, iv measured upto 24 hrs LC-MS/MS analysis; settings: in vivo
[8] = Volume of distribution at steady state in mouse at 1 mg/kg, iv measured upto 24 hrs LC-MS/MS analysis; settings: in vivo
[9] = Half life in mouse at 1 mg/kg, iv measured upto 24 hrs LC-MS/MS analysis; settings: in vivo
[10] = AUClast in mouse at 1 mg/kg, iv measured upto 24 hrs LC-MS/MS analysis; settings: in vivo
[11] = AUClast in mouse at 25 mg/kg, po measured upto 24 hrs LC-MS/MS analysis; settings: in vivo
in vivo [12] = settings: mouse, po, 25 mg/kg
in vivo [13] = settings: mouse, po, 25 mg/kg; remark: listed apart in the source
in vivo [14] = settings: mouse, po, 25 mg/kg; remark: listed apart in the source
hERG (KCNH2) = hERG (KCNH2) (Homo sapiens, UniProt Q12809); assay: Inhibition of human ERG expressed in HEK293 cells at 10 uM relative to control; type: cell-based; settings: HEK293 cells expressing human ERG
Chain of hERG (KCNH2) (Q12809 whole entry): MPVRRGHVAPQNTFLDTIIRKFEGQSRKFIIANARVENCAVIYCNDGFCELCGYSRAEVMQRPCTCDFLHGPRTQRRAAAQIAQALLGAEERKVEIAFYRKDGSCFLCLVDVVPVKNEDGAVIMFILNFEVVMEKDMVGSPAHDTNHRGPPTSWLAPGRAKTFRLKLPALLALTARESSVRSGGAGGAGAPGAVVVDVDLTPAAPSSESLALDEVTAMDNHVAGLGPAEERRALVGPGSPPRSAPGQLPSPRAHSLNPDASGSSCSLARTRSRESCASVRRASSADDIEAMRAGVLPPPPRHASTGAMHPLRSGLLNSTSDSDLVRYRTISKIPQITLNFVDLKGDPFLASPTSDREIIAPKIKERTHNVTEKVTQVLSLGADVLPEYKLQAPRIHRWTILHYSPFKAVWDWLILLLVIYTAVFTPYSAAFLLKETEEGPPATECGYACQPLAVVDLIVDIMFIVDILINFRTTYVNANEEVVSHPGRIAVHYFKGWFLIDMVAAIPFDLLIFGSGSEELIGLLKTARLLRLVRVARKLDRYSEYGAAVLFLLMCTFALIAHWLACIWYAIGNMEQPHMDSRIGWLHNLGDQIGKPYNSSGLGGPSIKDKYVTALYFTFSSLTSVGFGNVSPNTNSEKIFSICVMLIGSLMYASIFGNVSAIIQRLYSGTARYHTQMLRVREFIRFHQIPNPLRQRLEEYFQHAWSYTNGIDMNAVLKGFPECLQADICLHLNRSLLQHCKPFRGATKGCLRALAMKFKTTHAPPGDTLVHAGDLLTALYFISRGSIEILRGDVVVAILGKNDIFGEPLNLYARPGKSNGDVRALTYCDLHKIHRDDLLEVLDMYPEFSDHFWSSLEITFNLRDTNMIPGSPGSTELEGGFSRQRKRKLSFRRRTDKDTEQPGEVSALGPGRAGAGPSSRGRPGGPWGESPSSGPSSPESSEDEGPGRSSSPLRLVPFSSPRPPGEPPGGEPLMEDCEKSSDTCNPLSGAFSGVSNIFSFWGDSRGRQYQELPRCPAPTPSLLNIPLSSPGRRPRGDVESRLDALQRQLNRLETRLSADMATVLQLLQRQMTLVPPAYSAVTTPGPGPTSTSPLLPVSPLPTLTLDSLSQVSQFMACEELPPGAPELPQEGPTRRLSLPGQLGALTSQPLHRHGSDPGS

[15] = Kinetic solubility of compound in 0.1 M Hcl at pH1 by HPLC analysis; type: physicochemical; settings: pH 1, read-out: Kinetic_solubility
[16] = Selectivity index, ratio IC50 for cytotoxicity against human MRC5 cells to IC50 for antileishmanial activity against Leishmania infantum MHOM/MA(BE)/67 amastigotes infected in macrophages
[17] = Stability of compound in human liver microsomes assessed as percentage of parent compound remaining at 1 uM measured after 1 hr
[18] = Stability of compound in CD-1 mouse liver microsomes assessed as percentage of parent compound remaining at 1 uM measured after 1 hr
[19] = Stability of compound in hamster liver microsomes assessed as percentage of parent compound remaining at 1 uM measured after 1 hr; settings: chinese hamster

Structure (SMILES) | IC50 (Leishmania donovani [1]) [nM] | IC50 (Leishmania infantum) [nM] | IC50 (Trypanosoma cruzi) [nM] | IC50 (MRC5) [nM] | MIC [2] [µM] | MIC [3] [µM] | solubility kinetic [4] [µg/mL] | inhibition in vivo at 50 mg/kg (Leishmania donovani [5]) [%] | selectivity ratio [16] | other results
CC1(COc2ccc(Cl)cn2)CCn2cc([N+](=O)[O-])nc2O1 (configuration not stated) | 150 | 380 | 630 | > 64000 | 2 | 8.7 | 23 (≈ 70.8 µM) | 14 | – | C0 at 24 h [6]: 2600 ng/mL; clearance at 24 h [7]: 8.3 mL/min/kg; Vd at 24 h [8]: 0.5 L/kg; half-life at 24 h [9]: 0.65 h; AUC(0-t) at 24 h [10]: 2010 ng·h/mL; AUC(0-t) at 24 h [11]: 57800 ng·h/mL; Cmax at 24 h (in vivo [12]): 11000 ng/mL; Tmax at 24 h (in vivo [13]): 1 h; bioavailability at 24 h (in vivo [14]): 100%
O=[N+]([O-])c1cn2c(n1)OC(COc1ccc(C(F)(F)F)nc1)CC2 (configuration not stated) | 110 | > 64000 | 1100 | > 64000 | – | – | 29 (≈ 84.2 µM) | – | – | inhibition at 10 µM (hERG (KCNH2)): 4%; C0 at 24 h [6]: 2300 ng/mL; clearance at 24 h [7]: 5.4 mL/min/kg; Vd at 24 h [8]: 0.47 L/kg; half-life at 24 h [9]: 1.1 h; AUC(0-t) at 24 h [10]: 3100 ng·h/mL; AUC(0-t) at 24 h [11]: 15100 ng·h/mL; Cmax at 24 h (in vivo [12]): 5800 ng/mL; Tmax at 24 h (in vivo [13]): 0.25 h; bioavailability at 24 h (in vivo [14]): 39%
O=[N+]([O-])c1cn2c(n1)OC(COc1ccc(C(F)(F)F)cn1)CC2 (configuration not stated) | 80 | > 64000 | 1000 | > 64000 | 2.6 | 20 | 37 (≈ 107 µM) | 46 | – | solubility kinetic [15]: 32 µg/mL (≈ 93 µM); inhibition at 10 µM (hERG (KCNH2)): 4%
CC1(COc2cccc(C(F)(F)F)n2)CCn2cc([N+](=O)[O-])nc2O1 (configuration not stated) | – | 580 | 440 | > 64000 | – | – | – | – | > 110 | –
O=[N+]([O-])c1cn2c(n1)OC(COc1ncc(C(F)(F)F)cn1)CC2 (configuration not stated) | – | > 64000 | 3300 | > 64000 | – | – | – | – | – | –
CC1(COc2cnc(C(F)(F)F)cn2)CCn2cc([N+](=O)[O-])nc2O1 (configuration not stated) | – | 2200 | 940 | > 64000 | – | – | 17 (≈ 47.3 µM) | 17 | > 29 | remaining at 1 h, 1 µM [17]: 91%; remaining at 1 h, 1 µM [18]: 90%; remaining at 1 h, 1 µM [19]: 36%
CC1(COc2ncc(C(F)(F)F)cn2)CCn2cc([N+](=O)[O-])nc2O1 (configuration not stated) | – | > 64000 | 3100 | > 64000 | – | – | 9.3 (≈ 25.9 µM) | 35 | – | remaining at 1 h, 1 µM [17]: 88%; remaining at 1 h, 1 µM [18]: 86%; remaining at 1 h, 1 µM [19]: 40%
CC1(COc2ccc(C(F)(F)F)nn2)CCn2cc([N+](=O)[O-])nc2O1 (configuration not stated) | – | > 64000 | 3800 | > 64000 | – | – | 10 (≈ 27.8 µM) | 0 | – | remaining at 1 h, 1 µM [17]: 90%; remaining at 1 h, 1 µM [18]: 89%; remaining at 1 h, 1 µM [19]: 58%
CC1(COc2ncc(F)cn2)CCn2cc([N+](=O)[O-])nc2O1 (configuration not stated) | 670 | > 64000 | 14000 | > 64000 | – | – | – | – | – | –
CC1(COc2ccc(C(F)(F)F)cc2)CCn2cc([N+](=O)[O-])nc2O1 (configuration not stated) | 160 | 160 | 150 | > 64000 | 0.8 | 4.1 | – | – | > 400 | –
O=[N+]([O-])c1cn2c(n1)OC(COc1cc(C(F)(F)F)ccn1)CC2 (configuration not stated) | – | > 64000 | 1000 | > 64000 | – | – | – | – | – | –
CC1(COc2ncc(Cl)cn2)CCn2cc([N+](=O)[O-])nc2O1 (configuration not stated) | 320 | > 64000 | 3700 | > 64000 | – | – | – | – | – | –
CC1(COc2ccc(Cl)nc2)CCn2cc([N+](=O)[O-])nc2O1 (configuration not stated) | 860 | 2800 | 930 | > 64000 | – | – | – | – | > 23 | –
CC1(COc2ccc(F)cn2)CCn2cc([N+](=O)[O-])nc2O1 (configuration not stated) | 260 | 1600 | 3300 | > 64000 | 2.3 | 19 | – | – | > 40 | –
CC1(COc2ccc(Cl)cc2)CCn2cc([N+](=O)[O-])nc2O1 (configuration not stated) | 50 | 130 | 180 | > 64000 | 0.86 | 7 | – | – | > 492 | –
O=[N+]([O-])c1cn2c(n1)OC(COc1ccc(OC(F)(F)F)cc1)CC2 (configuration not stated) | 40 | – | 61 | – | 5.2 | 4.7 | – | – | – | –
CC1(COc2ccc(C(F)(F)F)nc2)CCn2cc([N+](=O)[O-])nc2O1 (configuration not stated) | 90 | 1900 | 780 | > 64000 | 66 | 33 | 7.3 (≈ 20.4 µM) | 42 | – | inhibition at 10 µM (hERG (KCNH2)): 17%; C0 at 24 h [6]: 1600 ng/mL; clearance at 24 h [7]: 4.1 mL/min/kg; Vd at 24 h [8]: 0.46 L/kg; half-life at 24 h [9]: 1.5 h; AUC(0-t) at 24 h [10]: 4000 ng·h/mL; AUC(0-t) at 24 h [11]: 41800 ng·h/mL; Cmax at 24 h (in vivo [12]): 11000 ng/mL; Tmax at 24 h (in vivo [13]): 1 h; bioavailability at 24 h (in vivo [14]): 84%
CC1(COc2ccccc2)CCn2cc([N+](=O)[O-])nc2O1 (configuration not stated) | 300 | 520 | 590 | > 64000 | 1.3 | 8.1 | – | – | > 123 | –
CC1(COc2ccc(Oc3ccccc3)cc2)CCn2cc([N+](=O)[O-])nc2O1 (configuration not stated) | 170 | 170 | 250 | > 64000 | 0.7 | 2.7 | – | – | > 376 | –
O=[N+]([O-])c1cn2c(n1)OC(COc1ccc(Cl)cn1)CC2 (configuration not stated) | 100 | > 64000 | 940 | > 64000 | – | – | 18 (≈ 57.9 µM) | – | – | inhibition at 10 µM (hERG (KCNH2)): 17%
CC1(COc2ccc(F)cc2)CCn2cc([N+](=O)[O-])nc2O1 (configuration not stated) | 290 | 450 | 450 | > 64000 | 1.3 | 5 | – | – | > 142 | –
C[C@@]1(COc2ccc(C(F)(F)F)nc2)CCn2cc([N+](=O)[O-])nc2O1 | 740 | 2300 | 1800 | > 64000 | > 128 | > 128 | 15 (≈ 41.9 µM) | 46 | – | C0 at 24 h [6]: 1900 ng/mL; clearance at 24 h [7]: 6 mL/min/kg; Vd at 24 h [8]: 0.75 L/kg; half-life at 24 h [9]: 1.2 h; AUC(0-t) at 24 h [10]: 2760 ng·h/mL; AUC(0-t) at 24 h [11]: 37200 ng·h/mL; Cmax at 24 h (in vivo [12]): 8000 ng/mL; Tmax at 24 h (in vivo [13]): 2 h; bioavailability at 24 h (in vivo [14]): 54%
C[C@]1(COc2ccc(C(F)(F)F)nc2)CCn2cc([N+](=O)[O-])nc2O1 | 440 | 1300 | 900 | > 64000 | – | – | 12 (≈ 33.5 µM) | 72 | – | C0 at 24 h [6]: 1100 ng/mL; clearance at 24 h [7]: 6.6 mL/min/kg; Vd at 24 h [8]: 0.91 L/kg; half-life at 24 h [9]: 1.3 h; AUC(0-t) at 24 h [10]: 2520 ng·h/mL; AUC(0-t) at 24 h [11]: 37200 ng·h/mL; Cmax at 24 h (in vivo [12]): 7300 ng/mL; Tmax at 24 h (in vivo [13]): 2 h; bioavailability at 24 h (in vivo [14]): 59%
CC1(COc2ccc(F)nc2)CCn2cc([N+](=O)[O-])nc2O1 (configuration not stated) | 600 | 7100 | 4300 | > 64000 | – | – | – | – | > 9 | –
CC1(COc2ncc(C(F)(F)F)cc2Cl)CCn2cc([N+](=O)[O-])nc2O1 (configuration not stated) | – | 260 | 290 | > 64000 | – | – | 11 (≈ 28 µM) | 0 | > 246 | remaining at 1 h, 1 µM [17]: 23%; remaining at 1 h, 1 µM [18]: 14%; remaining at 1 h, 1 µM [19]: 0%
O=[N+]([O-])c1cn2c(n1)OC(COc1cccc(C(F)(F)F)n1)CC2 (configuration not stated) | – | > 64000 | 530 | > 64000 | – | – | – | – | – | –
CC1(COc2ncc(C(F)(F)F)cc2F)CCn2cc([N+](=O)[O-])nc2O1 (configuration not stated) | – | 470 | 730 | > 64000 | – | – | 13 (≈ 34.6 µM) | 56 | > 136 | remaining at 1 h, 1 µM [17]: 64%; remaining at 1 h, 1 µM [18]: 44%; remaining at 1 h, 1 µM [19]: 0.4%
CC1(COc2cc(C(F)(F)F)ccn2)CCn2cc([N+](=O)[O-])nc2O1 (configuration not stated) | – | 450 | 860 | > 64000 | – | – | – | – | > 142 | –
